≈ marks a conversion by molar mass, not a printed value. Where a SMILES comes first, the peptide text is derived from it. Side-chain parts run from the residue outwards. [ ]: non-standard residue; d: D form. The star is where a group is joined. Lys(α,ε-(ArgTrp)2) = N=C(N)NCCC[C@H](N)C(=O)N[C@@H](Cc1c[nH]c2ccccc12)C(=O)NCCCC[C@H](NC(=O)[C@H](Cc1c[nH]c2ccccc12)NC(=O)[C@@H](N)CCCNC(=N)N)C(=O)*; NHBn = c1ccc(CN*)cc1; OBn = c1ccc(CO*)cc1; X1 = CCCCCCCCCN*; βAla = NCCC(=O)O

Here are results for three molecules from patent US7902327B2, “Dendrimeric peptides, pharmaceutical compositions and methods of using the same” (New York University School of Medicine, priority 2007, dated 2011).

The test has as its system E. faecalis (29212). The note with it: 29212.

On to `N=C(N)NCCC[C@H](N)C(=O)N[C@@H](Cc1c[nH]c2ccccc12)C(=O)NCCCC[C@H](NC(=O)[C@H](Cc1c[nH]c2ccccc12)NC(=O)[C@@H](N)CCCNC(=N)N)C(=O)NCCCC[C@H](NC(=O)[C@H](CCCCNC(=O)[C@H](Cc1c[nH]c2ccccc12)NC(=O)[C@@H](N)CCCNC(=N)N)NC(=O)[C@H](Cc1c[nH]c2ccccc12)NC(=O)[C@@H](N)CCCNC(=N)N)C(=O)NCCC(=O)NCc1ccccc1` [(RW)4D-Benzyl amine] (H-RWK([Trp-Arg])K(Lys(α,ε-(ArgTrp)2))[βAla]-NHBn), for which the “MIC50 E. faecalis” value was found to be 5.1 µg/mL (≈ 2.64 µM).

Turning to `N=C(N)NCCC[C@H](N)C(=O)N[C@@H](Cc1c[nH]c2ccccc12)C(=O)NCCCC[C@H](NC(=O)[C@H](Cc1c[nH]c2ccccc12)NC(=O)[C@@H](N)CCCNC(=N)N)C(=O)NCCCC[C@H](NC(=O)[C@H](CCCCNC(=O)[C@H](Cc1c[nH]c2ccccc12)NC(=O)[C@@H](N)CCCNC(=N)N)NC(=O)[C@H](Cc1c[nH]c2ccccc12)NC(=O)[C@@H](N)CCCNC(=N)N)C(=O)NCCC(=O)OCc1ccccc1` [(RW)4D-Benzyl ester] (H-RWK([Trp-Arg])K(Lys(α,ε-(ArgTrp)2))[βAla]-OBn), the “MIC50 E. faecalis” value is 6.7 µg/mL (≈ 3.47 µM).

For the molecule `CCCCCCCCCNC(=O)CCNC(=O)[C@H](CCCCNC(=O)[C@H](CCCCNC(=O)[C@H](Cc1c[nH]c2ccccc12)NC(=O)[C@@H](N)CCCNC(=N)N)NC(=O)[C@H](Cc1c[nH]c2ccccc12)NC(=O)[C@@H](N)CCCNC(=N)N)NC(=O)[C@H](CCCCNC(=O)[C@H](Cc1c[nH]c2ccccc12)NC(=O)[C@@H](N)CCCNC(=N)N)NC(=O)[C@H](Cc1c[nH]c2ccccc12)NC(=O)[C@@H](N)CCCNC(=N)N` [(RW)4D-Nonylamine] (H-RWK([Trp-Arg])K(Lys(α,ε-(ArgTrp)2))[βAla]-X1), the “MIC50 E. faecalis” value worked out at 5.7 µg/mL (≈ 2.9 µM).
